Converted amounts (≈) assume the structure as drawn. Where two headings read alike, the source gives them in different places.
Columns and labels:
F. tularensis SCHU-S4 [1] = experiment: microbe, parasite or virus in culture; format: cell-based; settings: Francisella tularensis, SCHUS4
F. tularensis SCHU-S4 [2] = experiment: microbe, parasite or virus in culture; format: cell-based; settings: Francisella tularensis, SCHUS4; remark: listed apart in the source
[3] = mouse, in vivo
[4] = mouse, in vivo, po
B. pseudomallei K96243 = experiment: microbe, parasite or virus in culture; format: cell-based; settings: Burkholderia pseudomallei
[5] = mouse, in vivo, 50 mg/kg
in vivo = settings: female, Balb/c, mouse

Row | SMILES | MIC (F. tularensis SCHU-S4 [1]) [µg/mL] | MBC (F. tularensis SCHU-S4 [2]) [µg/mL] | Effect on body weight [3] | Necropsy findings ([3]; ip) | Necropsy findings ([3]; po) | Mean weight gain on Day 36 [4] [%] | Mean weight loss of starting weight by Day 8 [4] [%] | MBC (B. pseudomallei K96243) [µg/mL] | AUC ([5]; ip) [µg/mL/h] | Tmax ([5]; ip) [min] | AUC ([5]; po) [µg/mL/h] | Tmax ([5]; po) [min] | Cmax (in vivo; ip, 50 mg/kg) [ng/mL] | Cmax (in vivo; ip, 100 mg/kg) [ng/mL] | Cmax (in vivo; po, 50 mg/kg) [ng/mL]
1 | C[C@H]1c2cccc(O)c2C(=O)C2=C(O)[C@]3(O)C(=O)C(C(N)=O)=C(O)[C@@H](N(C)C)[C@@H]3[C@@H](O)[C@@H]21 [Free doxycycline, doxycycline hyclate] | 0.5 (≈ 1.13 µM) | > 64 | strong indication for doxycycline-based weight loss | peritoneal adhesions involving spleen, pancreas, intestines and kidney | two mice had slightly rounded edges to the lobes of the liver | 1.7 | 5.2 | – | – | – | – | – | – | – | –
2 | O=C(O)c1cn(C2CC2)c2cc(N3CCNCC3)c(F)cc2c1=O [Free ciprofloxacin, ciprofloxacin] | – | – | significantly induced weight loss | – | – | 2.4 | 4.4 | 16 (≈ 48.3 µM) | – | – | – | – | – | – | –
3 | C[C@H]1COc2c(N3CCN(C)CC3)c(F)cc3c(=O)c(C(=O)O)cn1c23 [Free levofloxacin, levofloxacin] | – | – | minimal | – | – | 3.2 | 3.3 | – | 122.1861 | 18 | 119.6124 | 36 | 50200 | 2100 | 46100
